Results from PMC8659057, “Chemical Constituents from the Wild Atractylodes macrocephala Koidz and Acetylcholinesterase Inhibitory Activity Evaluation as Well as Molecular Docking Study” (Molecules, 2021).
Read-outs that look alike come from different tables or passages of the source.

Target: acetylcholinesterase (AChE, Type VI-S, from electric eel) (Electrophorus electricus, UniProt O42275)
Assay: modified Ellman colorimetric AChE inhibition assay
Format: biochemical

Sequence of acetylcholinesterase (AChE, Type VI-S, from electric eel) (O42275 24-633): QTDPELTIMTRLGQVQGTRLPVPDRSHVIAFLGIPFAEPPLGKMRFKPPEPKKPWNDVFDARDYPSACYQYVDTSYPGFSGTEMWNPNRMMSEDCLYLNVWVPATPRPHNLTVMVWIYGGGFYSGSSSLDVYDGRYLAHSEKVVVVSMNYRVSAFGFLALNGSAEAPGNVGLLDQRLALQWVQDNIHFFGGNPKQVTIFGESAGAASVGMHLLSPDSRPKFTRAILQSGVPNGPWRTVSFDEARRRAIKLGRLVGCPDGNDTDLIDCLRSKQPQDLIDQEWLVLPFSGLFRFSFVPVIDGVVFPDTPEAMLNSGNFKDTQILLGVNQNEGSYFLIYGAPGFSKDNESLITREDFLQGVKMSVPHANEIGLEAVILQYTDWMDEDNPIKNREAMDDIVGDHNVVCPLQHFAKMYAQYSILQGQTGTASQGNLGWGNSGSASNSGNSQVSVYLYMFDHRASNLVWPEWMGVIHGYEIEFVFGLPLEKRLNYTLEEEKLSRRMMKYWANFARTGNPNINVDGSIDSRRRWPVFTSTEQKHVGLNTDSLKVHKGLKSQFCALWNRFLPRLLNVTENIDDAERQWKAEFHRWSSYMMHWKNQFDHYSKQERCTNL

## C=C1CCC[C@]2(C)C[C@]3(O)OC(=O)C(C)=C3C[C@@H]12 [compound 1, atractylenolide III]
read-out: IC50 (converted)
  IC50: 247 µM

## C=C1C(OC(C)=O)CCC2(C)CC3(C45CC6(C)CCC(OC(C)=O)C(=C)C6CC4=C(C)C(=O)O5)OC(=O)C(C)=C3CC12 (centres unmarked) [compound 5, biatractylenolide II]
  IC50: 33.9 µM
